“Also recorded” adds a separate entry of the source.
Tests used:
[1] = tested on: BEAS-2B human bronchial epithelial cells; conditions: cited from earlier work
exogenous cyclin E = exogenous cyclin E expression in retrovirally transduced BEAS-2B cells treated with agents; assay type: cell-based, human; conditions: treated for 24, 36 and 48 hours
Procedure: To determine whether other agents could modulate the expression of cyclin E, […], N-(4-hydroxyphenyl)retinamide (4HPR or fenretinide), or other non-classical retinoids for 24, 36 and 48 hours.

Row | Compound | NNK-mediated transformation ([1]; BEAS-2B cells exposed to NNK) | cyclin E expression ([1]; RA treatment) | exogenous cyclin E expression (exogenous cyclin E)
1 | CC1=C(/C=C/C(C)=C/C=C/C(C)=C/C(=O)O)C(C)(C)CCC1 [RA, All-trans-retinoic acid] | antagonizes NNK-mediated transformation by causing G1 arrest | represses cyclin E expression via activation of a proteosomal degradation pathway | –
2 | CC1(C)CC[C@]2(C(=O)O)CC[C@]3(C)[C@H](C(=O)C=C4[C@@]5(C)C=C(C#N)C(=O)C(C)(C)[C@@H]5CC[C@]43C)[C@@H]2C1 [CDDO, 2-cyano-3,12-dioxooleana-1,9-dien-28-oic acid] | – | – | potently repress exogenous cyclin E expression; also recorded: most potently decreased exogenous cyclin E expression, as early as 24 hours after treatment
